What all share (test): growth of human tumour cells (NCI), 48 h
Assay [1] concerns DMS 273 small cell lung.
Assay [2] has as its system SNB-78 CNS.
Assay [3] deals with M19-MEL melanoma.
The subject of assay [4] is XF 498 CNS.
Assay [5] concerns DMS 114 small cell lung.
Assay [6] relates to KM20L2 colon.
Assay [7] relates to DLD-1 colon.
In assay [8] the test system is HOP-18 NSCLC.
For assay [9], the system named is RXF-631 renal.

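Each compound was tested at five concentrations against cells in 96-well plates for 48 hours. TGI: total growth inhibition.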

As for `Cc1ccc(S(=O)(=O)c2c3[nH]c4ccccc4nc3n3c2nc2ccccc23)cc1`, the TGI in assay [1], in assay [2], in assay [3], in assay [4], in [5] and in assay [6] was greater than 100 µM in each case. The TGI in assay [7] is greater than 100 µM.
Take `C=CCCCCCC(O)C(O)C/C=C\C/C=C\CC` (stereo not drawn): the TGI in [1], in [2], in [4], in assay [5], in [6] and in assay [7] was greater than 18.8 µM throughout. Besides, in assay [8], the TGI is greater than 18.8 µM.
Turning to `O=C1c2c(nc3ccccc3c2-c2ccccc2)CN1Nc1ccccc1`, the TGI in [3], in assay [4], in assay [5], in assay [6] and in [7] was greater than 100 µM in each case.
In the case of `C/C(=N\NC(=S)NNC(=S)N(C)c1ccccc1)c1ccccn1`, the TGI is greater than 100 µM in assay [1]; greater than 100 µM in [2]; 7.59 µM in [3]; greater than 100 µM in [4]; 12.6 µM in assay [5]; greater than 100 µM in [7]. In addition, the TGI in assay [8] came to 0.732 µM.
As for `N#CC(NNC(=O)c1ccccc1O)c1ccccc1` (stereo not drawn), the TGI was greater than 100 µM in [1]; greater than 100 µM in assay [2]; greater than 100 µM in [3]; 4.87 µM in assay [5]; greater than 100 µM in assay [6]; greater than 100 µM in [7]. Also, the TGI in [8] was greater than 100 µM.
On to `COc1ccc(CCc2ccccc2CC(=O)O)cc1`, for which the TGI in assay [1], in [2], in assay [3], in assay [4], in assay [5] and in assay [6] was greater than 100 µM each time. Besides, the TGI in assay [7] and in assay [8] was greater than 100 µM each time.
Turning to `CC1=NN(C(=O)c2ccc(Cl)cc2)C(=O)/C1=C/c1ccc(O)cc1`, the TGI in assay [3], in assay [4], in assay [5], in [6] and in [7] was greater than 100 µM throughout.
With `N#CN1CCC=C(c2cc3ccccc3[nH]2)C1`, the TGI in assay [1], in assay [3], in [6], in [9], in assay [7] and in [8] was greater than 448 µM each time.
On to `COC1=CC(=O)[C@]2(C)[C@H](C1=O)C(C)[C@H]2c1ccccc1` (stereo partly drawn), for which the TGI in [1], in [2], in assay [3], in assay [4], in assay [9] and in assay [7] was greater than 100 µM throughout.

The values are drawn from PubChem BioAssay (NCI).
